IC50 data for four molecules are collected here from ChEMBL document CHEMBL1629537, “Non-natural macrocyclic inhibitors of histone deacetylases: design, synthesis, and activity” (J Med Chem, 2010).

Assay [1] addresses T1, Protein deacetylase HDAC6 (Homo sapiens, UniProt Q9UBN7).
T1 sequence (Q9UBN7 whole entry): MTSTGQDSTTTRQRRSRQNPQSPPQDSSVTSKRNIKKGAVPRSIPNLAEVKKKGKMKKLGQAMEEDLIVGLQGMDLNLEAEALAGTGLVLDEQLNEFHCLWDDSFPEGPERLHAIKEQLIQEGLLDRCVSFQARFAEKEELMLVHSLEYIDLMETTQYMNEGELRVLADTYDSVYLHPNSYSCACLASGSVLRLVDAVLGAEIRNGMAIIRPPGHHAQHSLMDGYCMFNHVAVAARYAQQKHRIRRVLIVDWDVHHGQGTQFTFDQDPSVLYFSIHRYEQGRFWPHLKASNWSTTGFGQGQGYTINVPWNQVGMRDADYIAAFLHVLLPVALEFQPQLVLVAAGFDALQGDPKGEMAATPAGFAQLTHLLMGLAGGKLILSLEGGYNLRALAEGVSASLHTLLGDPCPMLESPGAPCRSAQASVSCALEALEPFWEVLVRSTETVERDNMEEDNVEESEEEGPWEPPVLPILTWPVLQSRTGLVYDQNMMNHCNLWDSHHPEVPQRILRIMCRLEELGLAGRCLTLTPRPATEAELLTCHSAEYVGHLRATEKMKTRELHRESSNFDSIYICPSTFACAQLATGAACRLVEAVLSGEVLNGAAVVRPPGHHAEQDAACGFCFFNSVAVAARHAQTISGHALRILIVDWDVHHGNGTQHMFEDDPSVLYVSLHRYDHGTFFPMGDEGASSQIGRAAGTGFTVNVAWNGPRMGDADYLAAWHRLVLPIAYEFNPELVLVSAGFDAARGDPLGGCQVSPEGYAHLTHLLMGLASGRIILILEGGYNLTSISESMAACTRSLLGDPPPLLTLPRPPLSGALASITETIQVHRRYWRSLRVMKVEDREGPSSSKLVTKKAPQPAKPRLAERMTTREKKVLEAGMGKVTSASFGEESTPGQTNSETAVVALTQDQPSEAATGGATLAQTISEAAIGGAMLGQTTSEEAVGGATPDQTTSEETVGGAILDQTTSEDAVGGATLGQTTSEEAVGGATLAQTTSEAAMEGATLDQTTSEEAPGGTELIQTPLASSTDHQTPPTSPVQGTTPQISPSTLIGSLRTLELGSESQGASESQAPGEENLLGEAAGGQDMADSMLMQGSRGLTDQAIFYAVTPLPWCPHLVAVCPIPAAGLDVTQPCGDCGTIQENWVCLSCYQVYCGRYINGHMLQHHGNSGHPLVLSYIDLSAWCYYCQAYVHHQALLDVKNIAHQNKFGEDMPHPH
The assay can be described thus: Inhibition of human HDAC6 by fluorimetric assay.

Assay [2] addresses T2, Histone deacetylase 7 (Homo sapiens, UniProt Q8WUI4).
T2 sequence (Q8WUI4 whole entry): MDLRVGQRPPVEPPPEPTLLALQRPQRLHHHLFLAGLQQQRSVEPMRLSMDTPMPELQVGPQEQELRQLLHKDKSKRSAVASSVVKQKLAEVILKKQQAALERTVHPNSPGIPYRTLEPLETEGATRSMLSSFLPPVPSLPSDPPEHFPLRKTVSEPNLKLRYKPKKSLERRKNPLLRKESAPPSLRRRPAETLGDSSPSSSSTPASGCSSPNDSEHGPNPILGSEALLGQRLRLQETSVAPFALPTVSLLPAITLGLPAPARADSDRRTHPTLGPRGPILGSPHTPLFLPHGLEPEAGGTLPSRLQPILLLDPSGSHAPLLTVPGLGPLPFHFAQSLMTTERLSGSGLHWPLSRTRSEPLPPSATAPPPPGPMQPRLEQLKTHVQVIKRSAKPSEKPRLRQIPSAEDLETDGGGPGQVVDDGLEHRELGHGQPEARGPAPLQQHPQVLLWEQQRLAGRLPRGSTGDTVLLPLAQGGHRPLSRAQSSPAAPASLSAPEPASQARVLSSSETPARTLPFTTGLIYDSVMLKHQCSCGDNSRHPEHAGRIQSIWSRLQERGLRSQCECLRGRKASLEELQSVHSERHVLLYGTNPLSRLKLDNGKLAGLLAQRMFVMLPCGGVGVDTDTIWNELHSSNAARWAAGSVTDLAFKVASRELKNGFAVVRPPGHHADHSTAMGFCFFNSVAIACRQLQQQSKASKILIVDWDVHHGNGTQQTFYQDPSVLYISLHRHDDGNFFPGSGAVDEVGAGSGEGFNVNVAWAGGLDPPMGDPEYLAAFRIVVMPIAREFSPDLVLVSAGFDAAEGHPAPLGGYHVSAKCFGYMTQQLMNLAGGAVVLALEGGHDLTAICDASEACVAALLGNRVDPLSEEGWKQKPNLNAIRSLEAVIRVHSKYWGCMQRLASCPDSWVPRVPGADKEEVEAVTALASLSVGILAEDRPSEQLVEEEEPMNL
The assay can be described thus: Inhibition of human HDAC7 by fluorimetric assay.

In assay [3] the target is Histone deacetylase 9 (Homo sapiens, UniProt Q9UKV0). The assay can be described thus: Inhibition of human HDAC9 by fluorimetric assay.
For assay [4], the system named is HCT-116. The assay can be described thus: cells. Format: functional, cell-based. The settings on record: Homo sapiens, HCT-116, 48 h.
The target of assay [5] is Histone deacetylase 5 (Homo sapiens, UniProt Q9UQL6). The assay can be described thus: Inhibition of human HDAC5 by fluorimetric assay.
The test system of assay [6] is NCI-H460. The assay can be described thus: cells. Type of assay: functional, cell-based. The settings on record: Homo sapiens, NCI-H460, 48 h.
In assay [7] the target is Histone deacetylase 4 (Homo sapiens, UniProt P56524). Description: Inhibition of human HDAC4 by fluorimetric assay.
In assay [8] the target is Histone deacetylase 1 (Homo sapiens, UniProt Q13547). The assay can be described thus: Inhibition of human HDAC1 by fluorimetric assay.
Assay [9] has as its target Histone deacetylase 3 (Homo sapiens, UniProt O15379).

Histone deacetylase 3, sequence (O15379 whole entry): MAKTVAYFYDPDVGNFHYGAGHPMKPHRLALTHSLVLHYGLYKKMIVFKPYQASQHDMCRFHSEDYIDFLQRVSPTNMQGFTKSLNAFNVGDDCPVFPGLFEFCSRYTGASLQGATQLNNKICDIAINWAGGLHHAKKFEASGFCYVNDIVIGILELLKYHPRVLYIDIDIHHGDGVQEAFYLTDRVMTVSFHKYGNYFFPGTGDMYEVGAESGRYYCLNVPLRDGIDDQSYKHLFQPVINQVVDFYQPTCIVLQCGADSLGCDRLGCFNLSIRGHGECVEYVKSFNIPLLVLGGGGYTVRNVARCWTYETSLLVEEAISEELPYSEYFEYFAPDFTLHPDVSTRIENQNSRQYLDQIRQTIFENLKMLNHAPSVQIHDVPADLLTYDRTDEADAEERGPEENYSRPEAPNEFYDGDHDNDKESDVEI
Histone deacetylase 1, sequence (Q13547 whole entry): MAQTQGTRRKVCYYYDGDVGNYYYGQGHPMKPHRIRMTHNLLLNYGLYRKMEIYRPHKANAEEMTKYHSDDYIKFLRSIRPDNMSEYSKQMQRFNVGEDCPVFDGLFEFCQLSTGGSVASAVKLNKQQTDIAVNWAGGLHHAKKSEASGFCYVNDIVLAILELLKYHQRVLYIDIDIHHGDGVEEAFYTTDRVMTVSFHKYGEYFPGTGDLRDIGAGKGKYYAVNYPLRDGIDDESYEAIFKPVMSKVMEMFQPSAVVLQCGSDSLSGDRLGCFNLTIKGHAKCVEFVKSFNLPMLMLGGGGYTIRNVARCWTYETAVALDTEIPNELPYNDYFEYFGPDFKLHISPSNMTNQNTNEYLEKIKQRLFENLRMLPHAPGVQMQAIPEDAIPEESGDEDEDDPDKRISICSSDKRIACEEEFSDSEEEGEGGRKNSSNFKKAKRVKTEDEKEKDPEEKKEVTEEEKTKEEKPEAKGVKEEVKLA
Histone deacetylase 4, sequence (P56524 whole entry): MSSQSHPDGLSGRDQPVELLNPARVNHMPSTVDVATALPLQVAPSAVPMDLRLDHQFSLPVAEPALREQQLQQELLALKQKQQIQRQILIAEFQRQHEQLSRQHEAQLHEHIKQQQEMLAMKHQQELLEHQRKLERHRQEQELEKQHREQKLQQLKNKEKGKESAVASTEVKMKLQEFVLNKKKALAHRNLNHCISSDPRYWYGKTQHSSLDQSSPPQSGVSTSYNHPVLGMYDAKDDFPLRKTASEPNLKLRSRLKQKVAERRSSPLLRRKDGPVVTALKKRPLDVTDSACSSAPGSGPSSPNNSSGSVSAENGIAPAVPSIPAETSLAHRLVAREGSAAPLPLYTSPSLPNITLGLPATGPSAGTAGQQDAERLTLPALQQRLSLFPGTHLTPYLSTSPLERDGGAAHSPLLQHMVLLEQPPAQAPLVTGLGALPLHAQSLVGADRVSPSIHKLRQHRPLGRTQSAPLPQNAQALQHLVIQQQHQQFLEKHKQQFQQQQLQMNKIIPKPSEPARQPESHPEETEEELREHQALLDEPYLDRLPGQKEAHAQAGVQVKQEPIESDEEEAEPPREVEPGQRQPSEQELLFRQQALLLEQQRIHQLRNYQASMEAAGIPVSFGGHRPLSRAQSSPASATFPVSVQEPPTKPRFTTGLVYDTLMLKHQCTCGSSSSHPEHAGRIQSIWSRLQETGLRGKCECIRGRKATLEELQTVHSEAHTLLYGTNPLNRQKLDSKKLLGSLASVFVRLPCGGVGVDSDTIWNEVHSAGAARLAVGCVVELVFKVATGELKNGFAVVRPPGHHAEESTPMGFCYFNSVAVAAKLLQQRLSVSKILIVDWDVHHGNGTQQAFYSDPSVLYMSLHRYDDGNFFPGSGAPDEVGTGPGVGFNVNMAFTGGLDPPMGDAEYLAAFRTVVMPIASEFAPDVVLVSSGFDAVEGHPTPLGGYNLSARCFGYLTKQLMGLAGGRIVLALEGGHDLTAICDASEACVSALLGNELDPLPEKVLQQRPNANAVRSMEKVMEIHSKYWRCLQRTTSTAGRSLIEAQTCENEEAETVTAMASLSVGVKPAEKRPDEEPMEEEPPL
Histone deacetylase 9, sequence (Q9UKV0 whole entry): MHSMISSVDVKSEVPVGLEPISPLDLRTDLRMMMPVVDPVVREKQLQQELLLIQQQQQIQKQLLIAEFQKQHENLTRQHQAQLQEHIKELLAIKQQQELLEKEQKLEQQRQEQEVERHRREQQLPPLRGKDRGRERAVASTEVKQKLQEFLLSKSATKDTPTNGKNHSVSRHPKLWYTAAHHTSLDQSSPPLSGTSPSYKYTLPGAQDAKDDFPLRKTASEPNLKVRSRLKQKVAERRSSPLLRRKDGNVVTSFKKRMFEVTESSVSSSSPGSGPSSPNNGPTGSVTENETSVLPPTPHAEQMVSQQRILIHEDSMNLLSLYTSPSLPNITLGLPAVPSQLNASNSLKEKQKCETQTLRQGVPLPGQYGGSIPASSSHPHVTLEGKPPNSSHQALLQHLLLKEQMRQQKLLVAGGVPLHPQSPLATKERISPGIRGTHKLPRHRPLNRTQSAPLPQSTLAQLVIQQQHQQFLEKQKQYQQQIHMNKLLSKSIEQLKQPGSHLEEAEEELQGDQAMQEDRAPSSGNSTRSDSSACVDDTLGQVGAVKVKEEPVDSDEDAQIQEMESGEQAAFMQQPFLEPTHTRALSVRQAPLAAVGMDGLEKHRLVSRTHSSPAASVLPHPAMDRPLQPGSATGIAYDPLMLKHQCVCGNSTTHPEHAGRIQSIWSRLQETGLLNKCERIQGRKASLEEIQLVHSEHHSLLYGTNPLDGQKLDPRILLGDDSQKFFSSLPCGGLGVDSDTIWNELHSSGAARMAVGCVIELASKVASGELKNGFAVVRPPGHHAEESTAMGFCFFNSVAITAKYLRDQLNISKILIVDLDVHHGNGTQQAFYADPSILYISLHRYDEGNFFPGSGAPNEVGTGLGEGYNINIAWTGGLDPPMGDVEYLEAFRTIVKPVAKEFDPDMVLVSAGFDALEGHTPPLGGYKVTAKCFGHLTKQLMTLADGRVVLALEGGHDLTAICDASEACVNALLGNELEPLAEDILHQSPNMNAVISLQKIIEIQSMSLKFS
Histone deacetylase 5, sequence (Q9UQL6 whole entry): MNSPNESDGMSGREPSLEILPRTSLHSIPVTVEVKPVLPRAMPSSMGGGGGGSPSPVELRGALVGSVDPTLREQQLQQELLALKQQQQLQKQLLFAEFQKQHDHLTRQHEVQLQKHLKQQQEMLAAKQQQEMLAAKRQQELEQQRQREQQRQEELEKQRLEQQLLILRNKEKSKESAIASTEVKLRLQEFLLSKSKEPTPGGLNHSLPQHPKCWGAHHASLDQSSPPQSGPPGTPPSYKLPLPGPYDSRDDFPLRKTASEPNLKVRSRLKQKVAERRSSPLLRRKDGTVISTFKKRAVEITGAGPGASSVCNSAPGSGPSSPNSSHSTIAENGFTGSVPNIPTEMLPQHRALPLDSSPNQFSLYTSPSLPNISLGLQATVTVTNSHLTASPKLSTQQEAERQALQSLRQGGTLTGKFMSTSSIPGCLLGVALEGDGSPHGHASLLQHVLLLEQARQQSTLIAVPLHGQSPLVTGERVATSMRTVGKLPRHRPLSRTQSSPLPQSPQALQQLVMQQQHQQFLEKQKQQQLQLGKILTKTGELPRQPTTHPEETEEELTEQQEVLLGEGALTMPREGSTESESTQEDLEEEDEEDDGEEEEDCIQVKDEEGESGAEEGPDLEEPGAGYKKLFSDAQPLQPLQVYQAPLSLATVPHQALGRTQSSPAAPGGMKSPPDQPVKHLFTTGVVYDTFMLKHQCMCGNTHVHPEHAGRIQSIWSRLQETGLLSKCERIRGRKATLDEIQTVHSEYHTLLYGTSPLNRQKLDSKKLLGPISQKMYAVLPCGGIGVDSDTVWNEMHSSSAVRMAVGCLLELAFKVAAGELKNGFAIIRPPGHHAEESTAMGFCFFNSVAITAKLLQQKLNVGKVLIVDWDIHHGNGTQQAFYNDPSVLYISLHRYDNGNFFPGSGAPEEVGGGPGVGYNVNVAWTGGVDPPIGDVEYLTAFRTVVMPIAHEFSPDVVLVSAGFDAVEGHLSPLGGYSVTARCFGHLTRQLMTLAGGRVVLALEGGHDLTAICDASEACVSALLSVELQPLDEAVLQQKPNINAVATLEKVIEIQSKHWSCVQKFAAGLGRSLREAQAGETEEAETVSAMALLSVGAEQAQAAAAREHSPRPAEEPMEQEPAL

Take `COc1cc2cc(c1)COc1ccccc1NC(=O)[C@H](CCCCCC(=O)NO)OC/C=C\2`: the IC50 is 0.84 nM in assay [1]; 27.8 nM in [2]; 60.6 nM in assay [3]; 690 nM in assay [4]; 62.2 nM in assay [5]; 1050 nM in assay [6]. In addition, the values for the half-maximal inhibitory concentration (IC50) in assay [7], in assay [8] and in assay [9] were 79.4 nM, 31.7 nM and 55.7 nM, respectively.

Consider `COc1cc2cc(c1)COc1ccccc1NC(=O)[C@@H](CCCCCC(=O)NO)OC/C=C\2`, for which the IC50 in [1] was found to be 10.2 nM; in assay [2] it was 180 nM; in assay [3] it was 302 nM; in [4], 640 nM; in [5] it was 155 nM; in [6], 820 nM. The IC50 worked out at 284 nM in assay [7], 78.1 nM in assay [8] and 89 nM in assay [9].

For `O=C(CCCCCC1OCCCCCOc2ccccc2NC1=O)NO` (racemic), the IC50 in [1] worked out at 15.6 nM; in [2], 1720 nM; in assay [3], 1900 nM; in [4], 690 nM; in assay [5], 1340 nM; in [6], 2000 nM. Further, the values for the IC50 in assay [7], in assay [8] and in assay [9] were 2580 nM, 949 nM and 369 nM, respectively.

`COc1cc2cc(c1)COc1ccccc1NC(=O)C(CCCCCC(=O)NO)OC/C=C\2` (racemic): the IC50 in assay [1] worked out at 1.97 nM; in [2], 72.6 nM; in [3], 99.6 nM; in assay [4], 450 nM; in assay [5] it was 55.4 nM; in assay [6] it was 880 nM. Further, the IC50 in assay [7] is 159 nM; in assay [8], 30.7 nM; in assay [9], 39.6 nM.

As a reminder, the IC50 is the concentration at which inhibition is half-maximal. Higher therefore signals weaker potency in that assay.
